Test results published in ChEMBL document CHEMBL5465560, “Selectivity Literature for EUbOPEN Chemogenomic Library” (2024).

Tests used:
Peregrin (Homo sapiens) = target: T1, Peregrin (Homo sapiens) (UniProt P55201); test: Selectivity interaction (Human bromodomain panel (DSF assay)) EUB0000233b BRPF1
T1 sequence (whole entry): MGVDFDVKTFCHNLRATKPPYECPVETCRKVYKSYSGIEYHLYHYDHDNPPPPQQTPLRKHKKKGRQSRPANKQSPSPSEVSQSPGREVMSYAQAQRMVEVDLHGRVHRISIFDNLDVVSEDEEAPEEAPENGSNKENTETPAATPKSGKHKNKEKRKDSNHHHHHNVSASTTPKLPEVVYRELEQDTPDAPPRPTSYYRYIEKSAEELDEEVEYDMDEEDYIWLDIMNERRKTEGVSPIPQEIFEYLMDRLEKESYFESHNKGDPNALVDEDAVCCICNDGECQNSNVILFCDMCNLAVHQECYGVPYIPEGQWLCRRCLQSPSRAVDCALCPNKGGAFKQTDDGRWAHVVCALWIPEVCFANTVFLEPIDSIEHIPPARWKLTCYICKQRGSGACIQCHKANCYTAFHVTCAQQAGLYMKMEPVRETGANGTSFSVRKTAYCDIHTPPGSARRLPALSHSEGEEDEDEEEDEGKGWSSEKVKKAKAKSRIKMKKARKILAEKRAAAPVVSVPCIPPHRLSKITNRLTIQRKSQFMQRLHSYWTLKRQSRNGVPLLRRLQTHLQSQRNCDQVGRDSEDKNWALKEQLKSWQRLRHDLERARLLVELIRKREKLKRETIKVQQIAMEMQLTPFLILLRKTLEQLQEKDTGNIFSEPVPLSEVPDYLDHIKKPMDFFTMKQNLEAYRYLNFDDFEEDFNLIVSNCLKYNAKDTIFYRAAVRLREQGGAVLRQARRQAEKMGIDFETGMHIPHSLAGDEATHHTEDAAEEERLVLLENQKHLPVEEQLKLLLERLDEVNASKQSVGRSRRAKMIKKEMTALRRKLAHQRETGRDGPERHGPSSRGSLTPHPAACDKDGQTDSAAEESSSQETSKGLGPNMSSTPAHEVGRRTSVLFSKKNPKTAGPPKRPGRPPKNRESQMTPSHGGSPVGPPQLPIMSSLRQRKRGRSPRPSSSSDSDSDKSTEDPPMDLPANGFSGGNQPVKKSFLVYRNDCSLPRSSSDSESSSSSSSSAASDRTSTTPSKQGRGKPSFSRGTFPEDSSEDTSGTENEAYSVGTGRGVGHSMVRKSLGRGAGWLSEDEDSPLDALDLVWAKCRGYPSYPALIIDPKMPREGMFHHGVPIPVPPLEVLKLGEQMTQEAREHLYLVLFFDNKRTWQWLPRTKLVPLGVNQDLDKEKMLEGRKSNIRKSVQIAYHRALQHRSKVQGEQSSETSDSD

[1] = target: T2, Phosphatidylinositol 5-phosphate 4-kinase type-2 beta (Homo sapiens) (UniProt P78356); test: Selectivity interaction (KinomeScan (DiscoverX)) EUB0001079a PIP4K2B; conditions: at 1 µM
T2 sequence (whole entry): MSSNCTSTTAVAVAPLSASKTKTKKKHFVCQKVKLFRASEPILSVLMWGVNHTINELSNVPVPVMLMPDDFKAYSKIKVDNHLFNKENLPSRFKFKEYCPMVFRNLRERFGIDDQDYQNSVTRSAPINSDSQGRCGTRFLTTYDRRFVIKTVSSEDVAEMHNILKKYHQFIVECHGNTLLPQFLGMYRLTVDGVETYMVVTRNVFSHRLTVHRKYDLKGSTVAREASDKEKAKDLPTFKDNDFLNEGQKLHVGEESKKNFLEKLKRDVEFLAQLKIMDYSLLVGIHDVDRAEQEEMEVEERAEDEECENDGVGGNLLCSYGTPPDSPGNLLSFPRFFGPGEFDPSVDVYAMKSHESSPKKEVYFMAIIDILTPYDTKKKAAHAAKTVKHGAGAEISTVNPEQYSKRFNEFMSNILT

[2] = target: Tyrosine-protein kinase Fyn (Homo sapiens) (UniProt P06241); test: Selectivity interaction (LanthaScreen Eu Kinase Binding Assay) EUB0001632a FYN; conditions: at 10 µM
[3] = target: Serine/threonine-protein kinase N2 (Homo sapiens, UniProt Q16513); test: Selectivity interaction (Kinase panel (literature)) EUB0001199aCl PKN2; conditions: at 1 µM
[4] = target: Calcium/calmodulin-dependent protein kinase type II subunit beta (Homo sapiens) (UniProt Q13554); test: Selectivity interaction (Kinase panel (DSF assay)) EUB0001558a CAMK2B
[5] = target: Tyrosine-protein kinase Srms (Homo sapiens) (UniProt Q9H3Y6); test: Selectivity interaction (Kinase panel (Invitrogen)) EUB0000639a SRMS; conditions: at 200 nM
[6] = target: T3, Scaffold protein ILK (Homo sapiens) (UniProt Q13418); test: Selectivity interaction (ActivX KiNativ screen (kinase selectivity in THP-1 cell lysates)) EUB0000639a ILK; assay type: subcellular; conditions: lysate, at 0.2 µM
T3 sequence (whole entry): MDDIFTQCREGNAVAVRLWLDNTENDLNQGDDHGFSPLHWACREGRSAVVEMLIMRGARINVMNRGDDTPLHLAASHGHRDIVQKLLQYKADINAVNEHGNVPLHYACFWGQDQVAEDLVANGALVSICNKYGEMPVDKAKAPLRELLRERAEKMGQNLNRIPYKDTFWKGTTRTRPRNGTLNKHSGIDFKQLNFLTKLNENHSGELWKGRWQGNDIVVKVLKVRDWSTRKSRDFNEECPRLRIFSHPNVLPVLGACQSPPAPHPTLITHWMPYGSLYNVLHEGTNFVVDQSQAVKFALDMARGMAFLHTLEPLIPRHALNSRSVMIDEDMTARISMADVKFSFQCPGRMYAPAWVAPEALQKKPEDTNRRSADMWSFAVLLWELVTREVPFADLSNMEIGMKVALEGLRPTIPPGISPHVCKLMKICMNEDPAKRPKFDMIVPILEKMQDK

[7] = target: Mitogen-activated protein kinase kinase kinase kinase 1 (Homo sapiens) (UniProt Q92918); test: Selectivity interaction (Ambit KINOMEscan and KiNATiv profiling in Jurkat cells) EUB0000090b MAP4K1; assay type: cell-based; conditions: at 1 µM
Chain of Mitogen-activated protein kinase kinase kinase kinase 1 (Homo sapiens) (Q92918 whole entry, looked up): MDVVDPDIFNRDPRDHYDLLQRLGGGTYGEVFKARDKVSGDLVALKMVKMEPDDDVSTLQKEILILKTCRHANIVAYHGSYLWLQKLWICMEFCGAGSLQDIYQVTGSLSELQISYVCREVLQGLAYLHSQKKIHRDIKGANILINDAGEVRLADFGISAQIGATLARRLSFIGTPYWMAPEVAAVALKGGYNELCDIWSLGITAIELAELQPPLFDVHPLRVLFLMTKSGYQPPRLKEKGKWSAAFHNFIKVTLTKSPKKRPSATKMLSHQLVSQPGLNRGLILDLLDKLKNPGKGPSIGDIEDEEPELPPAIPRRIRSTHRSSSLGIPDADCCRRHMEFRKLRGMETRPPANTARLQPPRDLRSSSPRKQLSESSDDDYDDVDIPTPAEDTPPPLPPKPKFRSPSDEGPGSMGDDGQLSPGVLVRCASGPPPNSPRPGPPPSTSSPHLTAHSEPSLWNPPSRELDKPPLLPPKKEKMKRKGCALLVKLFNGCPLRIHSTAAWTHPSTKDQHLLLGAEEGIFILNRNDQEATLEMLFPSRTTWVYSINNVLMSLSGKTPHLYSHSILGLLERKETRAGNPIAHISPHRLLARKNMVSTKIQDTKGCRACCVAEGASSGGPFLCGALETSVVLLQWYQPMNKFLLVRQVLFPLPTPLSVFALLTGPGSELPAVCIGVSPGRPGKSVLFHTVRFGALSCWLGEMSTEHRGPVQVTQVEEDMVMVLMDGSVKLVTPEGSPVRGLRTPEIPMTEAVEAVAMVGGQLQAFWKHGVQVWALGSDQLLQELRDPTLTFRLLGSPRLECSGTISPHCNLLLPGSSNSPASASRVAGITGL

Chain of Tyrosine-protein kinase Fyn (Homo sapiens) (P06241 2-537 limits assumed): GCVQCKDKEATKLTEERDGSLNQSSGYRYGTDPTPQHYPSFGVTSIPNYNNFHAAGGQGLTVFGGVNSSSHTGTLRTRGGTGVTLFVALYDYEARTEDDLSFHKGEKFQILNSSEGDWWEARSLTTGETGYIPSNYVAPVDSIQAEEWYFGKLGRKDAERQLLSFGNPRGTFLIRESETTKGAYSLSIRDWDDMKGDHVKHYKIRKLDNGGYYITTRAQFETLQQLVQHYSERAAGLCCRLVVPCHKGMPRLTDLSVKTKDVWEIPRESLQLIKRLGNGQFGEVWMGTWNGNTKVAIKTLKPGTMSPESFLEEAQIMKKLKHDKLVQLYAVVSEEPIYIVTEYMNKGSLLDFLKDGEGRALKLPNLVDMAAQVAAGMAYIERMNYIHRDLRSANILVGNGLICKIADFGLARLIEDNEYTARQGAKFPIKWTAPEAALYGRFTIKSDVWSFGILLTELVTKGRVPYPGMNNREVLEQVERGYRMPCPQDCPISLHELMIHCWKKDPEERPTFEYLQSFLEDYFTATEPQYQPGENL
Chain of Tyrosine-protein kinase Srms (Homo sapiens) (Q9H3Y6 whole entry): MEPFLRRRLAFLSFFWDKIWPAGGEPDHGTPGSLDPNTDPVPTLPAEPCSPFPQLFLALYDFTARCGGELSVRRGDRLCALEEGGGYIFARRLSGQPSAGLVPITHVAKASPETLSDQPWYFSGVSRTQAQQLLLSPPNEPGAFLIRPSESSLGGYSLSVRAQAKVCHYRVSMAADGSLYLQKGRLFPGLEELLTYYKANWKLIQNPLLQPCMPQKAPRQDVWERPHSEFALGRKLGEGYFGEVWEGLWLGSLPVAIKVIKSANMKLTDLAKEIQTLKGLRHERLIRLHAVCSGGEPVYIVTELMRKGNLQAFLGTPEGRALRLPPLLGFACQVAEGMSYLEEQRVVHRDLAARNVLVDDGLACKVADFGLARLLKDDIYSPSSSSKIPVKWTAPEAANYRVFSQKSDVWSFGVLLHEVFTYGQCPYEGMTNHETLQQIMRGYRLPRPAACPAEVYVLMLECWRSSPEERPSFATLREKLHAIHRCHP
Chain of Serine/threonine-protein kinase N2 (Q16513 whole entry, looked up): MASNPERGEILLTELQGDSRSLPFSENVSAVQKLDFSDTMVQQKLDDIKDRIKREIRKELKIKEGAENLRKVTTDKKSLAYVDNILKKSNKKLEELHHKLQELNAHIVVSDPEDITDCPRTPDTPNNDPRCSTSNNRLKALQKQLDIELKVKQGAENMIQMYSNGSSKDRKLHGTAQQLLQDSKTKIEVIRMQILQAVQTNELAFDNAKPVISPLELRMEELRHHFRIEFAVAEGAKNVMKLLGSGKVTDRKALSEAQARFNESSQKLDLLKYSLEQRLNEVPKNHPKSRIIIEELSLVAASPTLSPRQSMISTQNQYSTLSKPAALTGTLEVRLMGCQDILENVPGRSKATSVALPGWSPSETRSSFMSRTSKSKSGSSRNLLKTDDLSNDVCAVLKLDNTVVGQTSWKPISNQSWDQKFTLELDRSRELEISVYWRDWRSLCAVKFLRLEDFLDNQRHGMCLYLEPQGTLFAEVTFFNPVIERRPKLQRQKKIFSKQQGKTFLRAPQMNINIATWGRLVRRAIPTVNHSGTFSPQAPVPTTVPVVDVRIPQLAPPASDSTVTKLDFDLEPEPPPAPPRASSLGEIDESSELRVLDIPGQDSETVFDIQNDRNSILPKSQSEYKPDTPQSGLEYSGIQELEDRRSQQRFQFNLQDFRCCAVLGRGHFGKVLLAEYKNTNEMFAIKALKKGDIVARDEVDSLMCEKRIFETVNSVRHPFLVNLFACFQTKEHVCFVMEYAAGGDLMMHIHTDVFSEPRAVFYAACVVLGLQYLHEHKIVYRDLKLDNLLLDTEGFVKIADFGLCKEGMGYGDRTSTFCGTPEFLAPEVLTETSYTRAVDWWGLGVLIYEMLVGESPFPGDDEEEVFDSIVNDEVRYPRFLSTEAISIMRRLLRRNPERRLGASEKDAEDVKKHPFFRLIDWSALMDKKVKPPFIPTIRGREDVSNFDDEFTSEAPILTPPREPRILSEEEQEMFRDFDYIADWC
Chain of Calcium/calmodulin-dependent protein kinase type II subunit beta (Homo sapiens) (Q13554 whole entry): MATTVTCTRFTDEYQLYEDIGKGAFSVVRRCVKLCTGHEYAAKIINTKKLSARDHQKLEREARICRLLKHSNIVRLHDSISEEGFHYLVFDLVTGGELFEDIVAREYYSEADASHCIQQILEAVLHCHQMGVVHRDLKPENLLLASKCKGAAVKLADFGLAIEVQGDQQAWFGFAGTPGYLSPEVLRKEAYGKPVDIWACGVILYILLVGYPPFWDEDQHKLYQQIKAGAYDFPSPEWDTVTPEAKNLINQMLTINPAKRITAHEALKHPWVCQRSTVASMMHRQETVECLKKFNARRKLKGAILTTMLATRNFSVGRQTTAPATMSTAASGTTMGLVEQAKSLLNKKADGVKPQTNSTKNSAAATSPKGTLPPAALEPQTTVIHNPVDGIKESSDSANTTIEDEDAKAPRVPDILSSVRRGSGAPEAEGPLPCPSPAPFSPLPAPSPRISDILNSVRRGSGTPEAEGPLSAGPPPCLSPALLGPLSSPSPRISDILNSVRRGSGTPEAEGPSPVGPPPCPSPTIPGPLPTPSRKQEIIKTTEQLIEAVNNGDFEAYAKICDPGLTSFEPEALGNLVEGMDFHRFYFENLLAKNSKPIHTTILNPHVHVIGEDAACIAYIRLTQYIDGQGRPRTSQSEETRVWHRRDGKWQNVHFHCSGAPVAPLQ

Work on `CN(C)CCCOc1ccc(-c2cc(NCCCn3cccn3)nc(S(C)(=O)=O)n2)cc1` yielded a dTM (Peregrin (Homo sapiens)) of less than 2 K.
Molecule `Nc1cnc(N2CCc3cc(S(=O)(=O)Nc4c(F)cc(Cl)cc4F)cc(N4CCCC4=O)c32)nc1` [TP-020n] has a % of control [1] of 100%.
Molecule `Cn1cc(-n2cnc3c(NCc4nc5cc(Cl)c(Cl)cc5[nH]4)nc(N4CCOCC4)nc32)cn1` has a % of inhibition [2] of -11.6%.
Work on `CN1Cc2nccc(-c3cn(C)nc3-c3ccc(F)cc3)c2C1=O` yielded a % of inhibition [3] of 2%.
`CC(C)(O)[C@H](F)CN1Cc2cc(NC(=O)c3cnn4cccnc34)c(N3CCOCC3)cc2C1=O` was tested, and the dTM [4] was 0.1 K.
In the case of `CC[C@@H]1[C@H](F)C(=O)N[C@@H]1COc1nccc2cc(C(N)=O)c(OC)cc12` [ZIMLOVISERTIB], the % of inhibition [5] was 6.49% and the % of inhibition [6] was -10.7%.
For `CN(C)C/C=C/C(=O)Nc1ccc(C(=O)N2CCCC(Nc3ncc(Cl)c(-c4c[nH]c5ccccc45)n3)C2)cc1` (stereo not drawn), the % of control [7] was 80%.
